Measurements: PMC5437114, “Exploring Pharmacological Mechanisms of Lavender (Lavandula angustifolia) Essential Oil on Central Nervous System Targets” (Frontiers in Pharmacology, 2017)

Target: T1, serotonin transporter (SERT) (Rattus norvegicus, UniProt P31652)
T1 construct: 225 μl of rat cortex suspension; from tissue; host or cells: rat (Sprague Dawley) brain cortex homogenate
Assay: Serotonin transporter assay ([3H]-citalopram binding assay)
Conditions: rat cortex

T1 sequence (P31652 whole entry): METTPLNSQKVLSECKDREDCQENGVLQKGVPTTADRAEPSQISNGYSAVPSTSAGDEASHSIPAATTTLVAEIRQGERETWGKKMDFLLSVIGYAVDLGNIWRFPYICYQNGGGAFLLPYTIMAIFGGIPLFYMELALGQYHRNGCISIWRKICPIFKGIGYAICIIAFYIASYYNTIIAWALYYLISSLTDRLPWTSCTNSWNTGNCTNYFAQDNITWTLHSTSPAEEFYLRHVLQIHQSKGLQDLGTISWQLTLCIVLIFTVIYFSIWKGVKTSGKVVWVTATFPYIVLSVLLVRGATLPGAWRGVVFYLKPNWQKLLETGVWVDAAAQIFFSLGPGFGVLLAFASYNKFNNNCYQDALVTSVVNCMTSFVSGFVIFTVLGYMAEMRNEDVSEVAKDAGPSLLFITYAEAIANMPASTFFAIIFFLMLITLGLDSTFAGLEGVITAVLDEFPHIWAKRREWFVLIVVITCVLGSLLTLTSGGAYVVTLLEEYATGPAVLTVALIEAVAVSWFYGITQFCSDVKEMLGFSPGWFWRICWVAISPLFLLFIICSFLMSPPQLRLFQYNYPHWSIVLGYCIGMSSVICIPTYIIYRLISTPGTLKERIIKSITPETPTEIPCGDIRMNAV

Row | Structure (SMILES) | Activity in the SERT assay (displacement of 3H-citalopram), in words
1 | C=CC(C)(O)CCC=C(C)C (centres unmarked) [Linalool, linalool] | effect was also detected
2 | C=CC(C)(CCC=C(C)C)OC(C)=O (centres unmarked) [Linalyl acetate, linalyl acetate] | did not show affinity
